Measured values reported in US8692017B2, “Carbon linked modulators of gamma-secretase” (Janssen Pharmaceutica, N.V., priority 2007, dated 2014).

target: T1, γ-secretase (Homo sapiens, UniProt P49768); assay: Screening for γ-secretase-modulating activity (Aβ42 lowering) in SKNBE2 cells carrying the APP 695-wild type; assay type: cell-based; conditions: @ 1 uM; SKNBE2 cells carrying APP 695-wild type; read-out: Aβ % inhibition @ 1 uM
T1 construct: endogenous in cells; host or cells: SKNBE2 cells carrying APP 695 wild type
Procedure: Screening was carried out using SKNBE2 cells carrying the APP 695-wild type, grown in DMEM/NUT-mix F12 (HAM) provided by Gibco (cat no. 31330-38) containing 5% Serum/Fe supplemented with 1% non-essential amino acids.
Cells were grown to near confluency.
The screening was performed using the assay as described in Citron et al (1997) Nature Medicine 3: 67.

SMILES | inhibition at 1 µM [%]
CC(C)CC(C(=O)O)c1cc(C(=O)c2cc(F)cc(F)c2)cc(-c2ccc(C(F)(F)F)cc2)c1 (centres unmarked) [Compound 7, 2-[5-(3,5-Difluoro-benzoyl)-4′-trifluoromethyl-biphenyl-3-yl]-4-methyl-pentanoic acid] | 50
CC(C)CC(C(=O)O)c1cc(C(=O)c2ccc(C#N)cc2)cc(-c2ccc(C(F)(F)F)cc2)c1 (centres unmarked) [Compound 8, 2-[5-(4-Cyano-benzoyl)-4′-trifluoromethyl-biphenyl-3-yl]-4-methyl-pentanoic acid] | 25
CC(C)CC(C(=O)O)c1cc(-c2ccc(C(F)(F)F)cc2)cc(C(O)c2cc(F)cc(F)c2)c1 (centres unmarked) [Compound 9, 2-{5-[(3,5-Difluoro-phenyl)-hydroxy-methyl]-4′-trifluoromethyl-biphenyl-3-yl}-4-methyl-pentanoic acid] | 14
CC(C)CC(C(=O)O)c1cc(C#Cc2cc(F)cc(F)c2)cc(-c2ccc(C(F)(F)F)cc2)c1 (centres unmarked) [Compound 10, 2-[5-(3,5-Difluoro-phenylethynyl)-4′-trifluoromethyl-biphenyl-3-yl]-4-methyl-pentanoic acid] | 53
CC(C)CC(C(=O)O)c1cc(C#Cc2ccc(C(F)(F)F)cc2)cc(-c2ccc(C(F)(F)F)cc2)c1 (centres unmarked) [Compound 11, 4-Methyl-2-[4′-trifluoromethyl-5-(4-trifluoromethyl-phenylethynyl)-biphenyl-3-yl]-pentanoic acid] | 10
CC(C)CC(C(=O)O)c1cc(C#Cc2ccc(Cl)cc2)cc(-c2ccc(C(F)(F)F)cc2)c1 (centres unmarked) [Compound 12, 2-[5-(4-Chloro-phenylethynyl)-4′-trifluoromethyl-biphenyl-3-yl]-4-methyl-pentanoic acid] | 18
CC(C)CC(C(=O)O)c1cc(C#Cc2cc(C(F)(F)F)cc(C(F)(F)F)c2)cc(-c2ccc(C(F)(F)F)cc2)c1 (centres unmarked) [Compound 13, 2-[5-(3,5-Bis-trifluoromethyl-phenylethynyl)-4′-trifluoromethyl-biphenyl-3-yl]-4-methyl-pentanoic acid] | 28

The next lines start with the values.

inhibition at 1 µM [%] | SMILES
34 | CC(C)CC(C(=O)O)c1cc(/C=C\c2ccc(Cl)cc2)cc(-c2ccc(C(F)(F)F)cc2)c1 (centres unmarked) [Compound 21, 2-{5-[2-(4-Chloro-phenyl)-vinyl]-4′-trifluoromethyl-biphenyl-3-yl}-4-methyl-pentanoic acid]
46 | CC(C)CC(C(=O)O)c1cc(/C=C\c2ccc(C(F)(F)F)cc2)cc(-c2ccc(C(F)(F)F)cc2)c1 (centres unmarked) [Compound 22, 4-Methyl-2-{4′-trifluoromethyl-5-[2-(4-trifluoromethyl-phenyl)-vinyl]-biphenyl-3-yl}-pentanoic acid]
72 | CC(C)CC(C(=O)O)c1cc(/C=C/c2cc(C(F)(F)F)cc(C(F)(F)F)c2)cc(-c2ccc(C(F)(F)F)cc2)c1 (centres unmarked) [Compound 23, 2-{5-[2-(3,5-Bis-trifluoromethyl-phenyl)-vinyl]-4′-trifluoromethyl-biphenyl-3-yl}-4-methyl-pentanoic acid]

same assay, conditions: SKNBE2 cells carrying APP 695-wild type; read-out: Aβ 42 lowering EC50

SMILES | EC50 [nM]
CC(C)CC(C(=O)O)c1cc(C(=O)c2cc(Cl)cc(Cl)c2)cc(-c2ccc(C(F)(F)F)cc2)c1 (centres unmarked) [Compound 1, 2-[5-(3,5-Dichloro-benzoyl)-4′-trifluoromethyl-biphenyl-3-yl]-4-methyl-pentanoic acid] | 710
CC(C)CC(C(=O)O)c1cc(Cc2cc(Cl)cc(Cl)c2)cc(-c2ccc(C(F)(F)F)cc2)c1 (centres unmarked) [Compound 2, 2-[5-(3,5-Dichloro-benzyl)-4′-trifluoromethyl-biphenyl-3-yl]-4-methyl-pentanoic acid] | 570
CC(C)CC(C(=O)O)c1cc(Cc2ccc(F)cc2F)cc(-c2ccc(C(F)(F)F)cc2)c1 (centres unmarked) [Compound 3, 2-[5-(2,4-Difluoro-benzyl)-4′-trifluoromethyl-biphenyl-3-yl]-4-methyl-pentanoic acid] | 2170
CC(C)CC(C(=O)O)c1cc(Cc2cnccc2Cl)cc(-c2ccc(C(F)(F)F)cc2)c1 (centres unmarked) [Compound 4, 2-[5-(4-Chloro-pyridin-3-ylmethyl)-4′-trifluoromethyl-biphenyl-3-yl]-4-methyl-pentanoic acid] | 2750
CC(C)CC(C(=O)O)c1cc(Cc2cccc(C(F)(F)F)c2)cc(-c2ccc(C(F)(F)F)cc2)c1 (centres unmarked) [Compound 5, 4-Methyl-2-[4′-trifluoromethyl-5-(3-trifluoromethyl-benzyl)-biphenyl-3-yl]-pentanoic acid] | 1130
CC(C)CC(C(=O)O)c1cc(Cc2cc(F)cc(F)c2)cc(-c2ccc(C(F)(F)F)cc2)c1 (centres unmarked) [Compound 6, 2-[5-(3,5-Difluoro-benzyl)-4′-trifluoromethyl-biphenyl-3-yl]-4-methyl-pentanoic acid] | 740
CC(C)CC(C(=O)O)c1cc(/C=C/c2ccc(-c3ccccc3)cc2)cc(-c2ccc(C(F)(F)F)cc2)c1 (centres unmarked) [Compound 14, 2-[5-(2-Biphenyl-4-yl-vinyl)-4′-trifluoromethyl-biphenyl-3-yl]-4-methyl-pentanoic acid] | 150

Other lines, results leading:

EC50 [nM] | SMILES
400 | CC(C)CC(C(=O)O)c1cc(/C=C/c2ccc(C(F)(F)F)cc2)cc(-c2ccc(C(F)(F)F)cc2)c1 (centres unmarked) [Compound 15, 4-Methyl-2-{4′-trifluoromethyl-5-[2-(4-trifluoromethyl-phenyl)-vinyl]-biphenyl-3-yl}-pentanoic acid]
660 | Cc1ccc(/C=C/c2cc(-c3ccc(C(F)(F)F)cc3)cc(C(CC(C)C)C(=O)O)c2)cc1 (centres unmarked) [Compound 16, 4-Methyl-2-[5-(2-p-tolyl-vinyl)-4′-trifluoromethyl-biphenyl-3-yl]-pentanoic acid]
360 | CC(C)CC(C(=O)O)c1cc(/C=C/c2ccc(Cl)cc2)cc(-c2ccc(C(F)(F)F)cc2)c1 (centres unmarked) [Compound 17, 2-{5-[2-(4-Chloro-phenyl)-vinyl]-4′-trifluoromethyl-biphenyl-3-yl}-4-methyl-pentanoic acid]
390 | CC(C)CC(C(=O)O)c1cc(/C=C/c2ccc(F)cc2)cc(-c2ccc(C(F)(F)F)cc2)c1 (centres unmarked) [Compound 18, 2-{5-[2-(4-Fluoro-phenyl)-vinyl]-4′-trifluoromethyl-biphenyl-3-yl}-4-methyl-pentanoic acid]
450 | CC(C)CC(C(=O)O)c1cc(/C=C/c2cc(F)cc(F)c2)cc(-c2ccc(C(F)(F)F)cc2)c1 (centres unmarked) [Compound 19, 2-{5-[2-(3,5-Difluoro-phenyl)-vinyl]-4′-trifluoromethyl-biphenyl-3-yl}-4-methyl-pentanoic acid]
610 | COc1ccc(/C=C/c2cc(-c3ccc(C(F)(F)F)cc3)cc(C(CC(C)C)C(=O)O)c2)cc1 (centres unmarked) [Compound 20, 2-{5-[2-(4-Methoxy-phenyl)-vinyl]-4′-trifluoromethyl-biphenyl-3-yl}-4-methyl-pentanoic acid]
210 | CC(C)CC(C(=O)O)c1cc(CCc2ccc(-c3ccccc3)cc2)cc(-c2ccc(C(F)(F)F)cc2)c1 (centres unmarked) [Compound 24, 2-[5-(2-Biphenyl-4-yl-ethyl)-4′-trifluoromethyl-biphenyl-3-yl]-4-methyl-pentanoic acid]
670 | CC(C)CC(C(=O)O)c1cc(CCc2ccc(C(F)(F)F)cc2)cc(-c2ccc(C(F)(F)F)cc2)c1 (centres unmarked) [Compound 25, 4-Methyl-2-{4′-trifluoromethyl-5-[2-(4-trifluoromethyl-phenyl)-ethyl]-biphenyl-3-yl}-pentanoic acid]
740 | CC(C)CC(C(=O)O)c1cc(CCc2ccc(Cl)cc2)cc(-c2ccc(C(F)(F)F)cc2)c1 (centres unmarked) [Compound 26, 2-{5-[2-(4-Chloro-phenyl)-ethyl]-4′-trifluoromethyl-biphenyl-3-yl}-4-methyl-pentanoic acid]
580 | CC(C)CC(C(=O)O)c1cc(CCc2ccc(F)cc2)cc(-c2ccc(C(F)(F)F)cc2)c1 (centres unmarked) [Compound 27, 2-{5-[2-(4-Fluoro-phenyl)-ethyl]-4′-trifluoromethyl-biphenyl-3-yl}-4-methyl-pentanoic acid]
350 | Cc1ccc(CCc2cc(-c3ccc(C(F)(F)F)cc3)cc(C(CC(C)C)C(=O)O)c2)cc1 (centres unmarked) [Compound 28, 4-Methyl-2-[5-(2-p-tolyl-ethyl)-4′-trifluoromethyl-biphenyl-3-yl]-pentanoic acid]
410 | CC(C)CC(C(=O)O)c1cc(CCc2cc(F)cc(F)c2)cc(-c2ccc(C(F)(F)F)cc2)c1 (centres unmarked) [Compound 29, 2-{5-[2-(3,5-Difluoro-phenyl)-ethyl]-4′-trifluoromethyl-biphenyl-3-yl}-4-methyl-pentanoic acid]
